Data set [1] has as its system synaptojanin 1 (synj1). Kind of data set: synj1 expression in cultured mouse neurons after AAV2 miRNA over-expression (western blot, qPCR). In kind it is cell-based. As to the method:
(§1) Mouse Neuronal and human iPSC culture. Primary cortical neurons were cultured (Zhu L et al., Proc Natl Acad Sci USA 2015, and Zhu L et al., J Biol Chem 2013) before being fixed and stained for confocal microscopy analysis (Zeiss LSM) (Berg I et al., Nat Protoc 2010). In some conditions, bovine serum albumin (BSA) or receptor-associated protein (RAP) was included in the cultured media (N=3/group). Alternatively, cultured neurons were transfected with adeno-associated virus 2 (AAV2)-containing miR-195-5p or miR-374 or scramble controls for 5 days before subjected to analysis. The ApoE4^+/+ and ApoE3^+/+ iPSCs were differentiated into neural progenitor cells (NPCs) by dual SMAD inhibition followed by neural rosette selection and forebrain-specific patterning by 20 ng/ml FGF2 exposure (Bowles K R et al., PloS one 2019, and Tcw J et al., Stem cell reports 2017). These NPCs were purified by MACS for CD271^−/CD133^+ (Bowles K R et al., PloS one 2019) and differentiated to cortical neurons (Bardy C et al., Proc Natl Acad Sci USA 2015, and Paquet D et al., Nature 2016) and a homogeneous population of astrocytes (Tcw J et al., Stem cell reports 2017, and Shaltouki A et al., Stem Cells 2013) before subjected to viral transfection and confocal microscopy analysis. Alternatively, mouse cortical neurons derived from ApoE4^+/+ and ApoE3^+/+ KI mice with synj1^+/+ or synj1^−/− genotypes were co-cultured with ApoE4^+/+ and ApoE3^+/+ iPSC-derived pure astrocytes. In some experiments, cultured neurons were transfected with AAV2-containing miR-195-5p, scramble controls or miR195 inhibitors that specifically prevent miR-195-5p binding to its target mRNA before co-culturing with iPSC-derived astrocytes. Cultured iPSC-derived neurons and astrocytes were then incubated with lysotracker red for various time periods before fixation and double-stained for pTau and a nuclear marker DAPI (blue) for confocal microscopy analysis (Zeiss). N=4-5/condition.
Brain and neuronal sample preparation and biochemical analysis. Snap-frozen mouse hemi-brains or cultured neurons were harvested in lysis buffer (Lane R F et al., The Journal of neuroscience 2010) and processed via step-wise solubilization (Lane R F et al., The Journal of neuroscience 2010, and Kawarabayashi T et al. The Journal of neuroscience 2001) followed by SDS-PAGE to determine levels of synj1, dyn1, holoAPP, and CTFs. Levels of Aβ42, Aβ40, pTau, Tau and ApoE were determined using high-sensitive ELISA kits. Some tissue was used for miRNA and RNA extraction followed by qPCR and RNA-seq analysis. Some animals underwent perfusion followed by brain tissue section for immunohistochemical staining of amyloid plaque, synj1 and pTau.
Statistical analysis. The sample sizes of each experiment were chosen based on power calculations derived from previous similar studies which allowed the determination of group sizes needed to achieve statistically significant results. […] Levels of miR-195-5p and miR-374 were normalized to U6 and RNU6B (internal controls) while synj1 mRNA normalized to GAPDH and 18s, and then expressed as Log2fold of changes when compared to controls. Levels of synj1, dyn1, pTau, Tau, and holoAPP were normalized to β-actin levels and expressed as a percentage of the control. Absolute Aβ42, Aβ40, pTau, Tau, and ApoE concentrations were quantitatively determined by ELISA and expressed as a percentage of the control. […] Pearson correlation coefficients were calculated to determine the linear relationship between the two variables. […]
(In general: Immunoblotting shows a protein as a band on a membrane.)

The test system of data set [2] is lysosomes of synj1+/+ and synj1-/- neurons. Nature of the data set: lysosome size in mouse synj1+/+ and synj1-/- neurons co-cultured with ApoE4+/+ iPSC-derived astrocytes. In kind it is cell-based. The method, then:
as §1, with “Alternatively, mouse cortical neurons derived from ApoE4^+/+ and ApoE3^+/+ KI mice with synj1^+/+ or synj1^−/− genotypes were co-cultured with ApoE4^+/+ and ApoE3^+/+ iPSC-derived pure astrocytes. In some experiments, cultured neurons were transfected with AAV2-containing miR-195-5p, scramble controls or miR195 inhibitors that specifically prevent miR-195-5p binding to its target mRNA before co-culturing with iPSC-derived astrocytes. Cultured iPSC-derived neurons and astrocytes were then incubated with lysotracker red for various time periods before fixation and double-stained for pTau and a nuclear marker DAPI (blue) for confocal microscopy analysis (Zeiss). N=4-5/condition.” left out

Data set [3] concerns ApoE4+/+ or ApoE3+/+ knock-in (KI) mice. Kind of data set: novel object recognition (NOR) after hippocampal AAV2 injection, ApoE KI mice. In kind it is in vivo, mouse. The text has this: Animal models. Human ApoE4^+/+ or ApoE3^+/+ knock-in (KI) mouse models without (Grootendorst J et al., Behavioural brain research 2005, Rodriguez G A et al., Learn Mem 2013, and Wang C et al., Neurobiology of disease 2005) or with 5×FAD background (Balu D et al., Neurosci Lett 2019, and Tai L M et al., J Lipid Res 2017) were genotyped (Zhong L et al., Mol Neurodegener 2016). Sex as a biological variable was taken into considerations with inclusion of both male and female mice in the experiments.
Stereotaxic injection and behavior studies. Eight to nine weeks old male and female ApoE3^+/+ and ApoE4^+/+ KI mice without 5×FAD background (N=19-23/group), or with 5×FAD background (N=15-17/group) were placed in the stereotaxic apparatus with AAV2 or scramble virus administered into the dorsal CA1 regions of bilateral hippocampal brain regions using pressure injection (Labonte B et al., Nat Med 2017, and Passini M A et al., The Journal of neuroscience 2006). Injection volumes (0.5-2.0 μl) were delivered over 10 min to avoid tissue damage. Six to nine months after viral delivery, mice were tested with the NOR task (Zhu L et al., Proc Natl Acad Sci USA 2015, Elder G A et al., J Neurotrauma 2012, and Howlett D R et al., Brain Res 2004). Mice were randomized for genotype and sex, and blinded throughout the behavior data collection and analysis, surgical manipulations, and sample collection.

[4] abbreviates: ApoE3+/+ neurons with miR-195 over-expression.
The mark [5] stands for this setting: ApoE4+/+ neurons with miR-195 over-expression.

As for “UAGCAGCACAGAAAUAUUGGC (chemistry not given here) [miR-195-5p, over-expressed via AAV2-containing miR-195-5p from ABM Inc]”, the entries for the “synj1 mRNA levels” value in data set [1] (setting [4]) and in data set [1] (setting [5]) were −1.084±0.035 log2FC and −7.751±0.043 log2FC, respectively. Also, the synj1 protein levels is 70.9±21.2 % of controls in data set [1] (setting [4]); 48.0±9.84 % of controls in data set [1] (setting [5]); 62.87±4.48 % of controls in data set [1] (ApoE-/- hippocampal neurons in presence of ApoE4-CM, miRNA over-expression, N=4/group). For the same sequence, the size of lysosomes is 75.8 μm^2 in data set [2] (synj1+/+ neurons, control 101.5 μm^2) and 69.7 μm^2 in data set [2] (synj1-/- neurons, control 77.0 μm^2). Besides, the “NOR, scramble versus miR-195-5p over-expressing animals” value in data set [3] (ApoE3+/+ KI mice) is on record as “no statistically significant differences”. In data set [3] (ApoE4+/+ KI mice, viral delivery to bilateral hippocampi, scramble controls 42.9%), this sequence showed an NOR preference index of 61.5%. The NOR discrimination index in data set [3] (ApoE4+/+ KI mice, scramble controls −0.144) is given as 0.231.

The values above are taken from patent publication US20240301408A1, “MICRORNA 195 COMPOSITIONS AND METHODS FOR TREATING COGNITIVE IMPAIRMENT” (UNITED STATES GOVERNMENT AS REPRESENTED BY THE DEPARTMENT …, priority 2021, published 2024).
